Results published in BindingDB's records for doi:10.1021/jm9600813 (National Institute of Diabetes and Digestive and Kidney …, 1996).

Biological target: Sigma non-opioid intracellular receptor 1 (Cavia porcellus) (UniProt Q60492)
Test: Displacement of [3H](+)-pentazocine from Sigma opioid receptor type 1 in guinea pig brain membrane

Sequence of Sigma non-opioid intracellular receptor 1 (Cavia porcellus) (Q60492 whole entry, looked up): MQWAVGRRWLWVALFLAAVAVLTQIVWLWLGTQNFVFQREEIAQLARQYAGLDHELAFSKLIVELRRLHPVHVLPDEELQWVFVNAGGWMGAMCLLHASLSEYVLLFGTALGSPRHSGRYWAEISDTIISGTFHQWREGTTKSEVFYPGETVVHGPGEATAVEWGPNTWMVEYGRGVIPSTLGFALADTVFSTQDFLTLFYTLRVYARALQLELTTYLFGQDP

SMILES | Ki
CN(CCc1ccccc1N)CCN1CCCC1 [2-{2-[Methyl-(2-pyrrolidin-1-yl-ethyl)-amino]-ethyl}-phenylamine] | 291 nM
COc1ccc(CC(=O)N(C)CCN2CCCC2)cc1 [2-(4-Methoxy-phenyl)-N-methyl-N-(2-pyrrolidin-1-yl-ethyl)-acetamide] | 2220 nM
CN(CCN1CCCC1)C(=O)Cc1cccc([N+](=O)[O-])c1 [N-Methyl-2-(3-nitro-phenyl)-N-(2-pyrrolidin-1-yl-ethyl)-acetamide] | 1850 nM
CN(CCc1cccc(N)c1)CCN1CCCC1 [3-{2-[Methyl-(2-pyrrolidin-1-yl-ethyl)-amino]-ethyl}-phenylamine] | 579 nM
CN(CCN1CCCC1)C(=O)Cc1ccccc1[N+](=O)[O-] [N-Methyl-2-(2-nitro-phenyl)-N-(2-pyrrolidin-1-yl-ethyl)-acetamide] | 736 nM
CN(CCN1CCCC1)C(=O)Cc1ccc([N+](=O)[O-])cc1 [N-Methyl-2-(4-nitro-phenyl)-N-(2-pyrrolidin-1-yl-ethyl)-acetamide] | 869 nM
COc1cccc(CC(=O)N(C)CCN2CCCC2)c1 [2-(3-Methoxy-phenyl)-N-methyl-N-(2-pyrrolidin-1-yl-ethyl)-acetamide] | 3100 nM

Second part, the compound after the results:

Ki | SMILES
23.8 nM | COc1cccc(CCN(C)CCN2CCCC2)c1 [[2-(3-Methoxy-phenyl)-ethyl]-methyl-(2-pyrrolidin-1-yl-ethyl)-amine]
7.7 nM | CN(CCc1ccccc1[N+](=O)[O-])CCN1CCCC1 [Methyl-[2-(2-nitro-phenyl)-ethyl]-(2-pyrrolidin-1-yl-ethyl)-amine]
30.3 nM | COc1ccc(CCN(C)CCN2CCCC2)cc1 [[2-(4-Methoxy-phenyl)-ethyl]-methyl-(2-pyrrolidin-1-yl-ethyl)-amine]
6.4 nM | CN(CCc1cccc([N+](=O)[O-])c1)CCN1CCCC1 [Methyl-[2-(3-nitro-phenyl)-ethyl]-(2-pyrrolidin-1-yl-ethyl)-amine]
276 nM | CN(CCc1ccc(N)cc1)CCN1CCCC1 [4-{2-[Methyl-(2-pyrrolidin-1-yl-ethyl)-amino]-ethyl}-phenylamine]
4.3 nM | CN(CCc1ccc([N+](=O)[O-])cc1)CCN1CCCC1 [Methyl-[2-(4-nitro-phenyl)-ethyl]-(2-pyrrolidin-1-yl-ethyl)-amine]
15.7 nM | COc1ccccc1CCN(C)CCN1CCCC1 [[2-(2-Methoxy-phenyl)-ethyl]-methyl-(2-pyrrolidin-1-yl-ethyl)-amine]
